Laboratory results: patent US20250032625A1, “HETEROBIFUNCTIONAL MOLECULES AS TEAD INHIBITORS” (Merck Patent GmbH, priority 2021, published 2025)
Like-named read-outs stand apart in the source and are kept apart here.

Key:
TEAD1 in NCI-H226 cells = TEAD1 in NCI-H226 cells (Homo sapiens (Human), UniProt P28347); experiment: TEAD degradation in NCI-H226 cell line (immunofluorescence); assay type: cell-based
Experimental: (§1) Degradation of TEAD isoform TEAD1 by exemplary compounds which has been determined at different time points in two different cell lines, SK-HEP1 and NCI-H226: For the assay, SK-HEP1 (ATCC HTB-52) and NCI-H226 (ATCC CRL-5826) cells were treated in duplicates with the test compounds in a 10-point dose, 1:3 dilution steps, with the top concentration starting at 30 uM (final concentration in assay). After either 16 or 24 hour incubation at 37° C., 95% rH, and 5% CO2, the cells were fixed with 4% PFA and TEAD1 levels were probed using immunofluorescence. The primary antibody used was Anti-TEF1 (BD, 610293) and the secondary antibody used was Alexa Fluor® 488 Goat Anti-Mouse IgG (H+L) (Molecular Probes, A-11001). Finally, the cell nuclei were co-stained by Hoechst 33258 (Invitrogen, H-3569) and imaged using a high content imager. The amount of TEAD degradation was determined by quantifying the fluorescence intensity levels of Anti-TEF1 in each individual cell per well. DC50 was calculated using curve fitting software Genedata Screener. Cell media: The SK-HEP1 cells were cultured in the following media: MEM, +10% FCS, +1× GlutaMAX, +100 μM NEAA, +10 mM HEPES, +0.5% Pen/Strep. The NCI-H226 cells were cultured in the following media: RPMI 1640, +10% FBS, +1× GlutaMAX, +10 mM HEPES, +0.5% Pen/Strep.

TEAD1 in SK-HEP1 cells = TEAD1 in SK-HEP1 cells (Homo sapiens (Human), UniProt P28347); experiment: TEAD degradation in SK-HEP1 cell line (immunofluorescence); assay type: cell-based
Experimental: as §1

[1] = 16 h incubation, read-out: DC50 NCI-H226 16 h
[2] = 24 h incubation, read-out: DC50 NCI-H226 24 h
[3] = 24 hours, ranges, read-out: DC50 NCI-H226
[4] = 16 h incubation, read-out: DC50 SK-HEP1 16 h
[5] = 24 h incubation, read-out: DC50 SK-HEP1 24 h
[6] = 24 hours, ranges, read-out: DC50 SK-HEP1

Sequence of TEAD1 in NCI-H226 cells (P28347 whole entry, canonical isoform): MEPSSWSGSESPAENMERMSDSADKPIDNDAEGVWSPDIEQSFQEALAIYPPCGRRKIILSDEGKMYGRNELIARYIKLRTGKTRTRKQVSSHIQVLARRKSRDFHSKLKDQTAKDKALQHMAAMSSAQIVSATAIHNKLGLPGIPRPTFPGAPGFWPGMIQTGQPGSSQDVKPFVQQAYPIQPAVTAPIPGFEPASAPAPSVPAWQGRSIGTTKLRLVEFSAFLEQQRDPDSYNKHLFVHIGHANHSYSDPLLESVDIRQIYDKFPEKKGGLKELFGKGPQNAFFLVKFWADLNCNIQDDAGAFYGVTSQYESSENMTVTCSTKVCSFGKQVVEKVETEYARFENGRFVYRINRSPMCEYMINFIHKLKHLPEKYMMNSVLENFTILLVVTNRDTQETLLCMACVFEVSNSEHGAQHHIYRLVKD
Sequence of TEAD1 in SK-HEP1 cells (P28347 whole entry): as the sequence (P28347 whole entry, canonical isoform) above

DC50 (TEAD1 in NCI-H226 cells; [1])	DC50 (TEAD1 in NCI-H226 cells; [2])	DC50 (TEAD1 in NCI-H226 cells; [3])	DC50 (TEAD1 in SK-HEP1 cells; [4])	DC50 (TEAD1 in SK-HEP1 cells; [5])	DC50 (TEAD1 in SK-HEP1 cells; [6])	SMILES
	10000 nM	9000 to 30000 nM		3500 nM	3000 to 9000 nM	Cn1cc2c3cc(C(=O)NCCOCCOCCOCCOCCNC(=O)COc4ccc5c(c4)CCCN5C(=O)CCl)ccc3n(-c3ccc(C(F)(F)F)cc3)c2n1 [Compound 31, 2-{[1-(2-chloroacetyl)-1,2,3,4-tetrahydroquinolin-6-yl]oxy}-N-[14-({2-methyl-8-[4-(trifluoromethyl)phenyl]-2H,8H-pyrazolo[3,4-b]indol-5-yl}formamido)-3,6,9,12-tetraoxatetradecan-1-yl]acetamide]
		< 100 nM			< 100 nM	Cc1ncsc1-c1ccc(CNC(=O)[C@@H]2C[C@@H](O)CN2C(=O)[C@@H](NC(=O)CCCCCc2cn(CCCCCCNC(=O)c3ccc4c(c3)c3cn(C)nc3n4-c3ccc(C(F)(F)F)cc3)nn2)C(C)(C)C)cc1 [Compound 35, (2S,4R)-1-[(2S)-3,3-dimethyl-2-(6-{1-[6-({2-methyl-8-[4-(trifluoromethyl)phenyl]-2H,8H-pyrazolo[3,4-b]indol-5-yl}formamido)hexyl]-1H-1,2,3-triazol-4-yl}hexanamido)butanoyl]-4-hydroxy-N-{[4-(4-methyl-1,3-thiazol-5-yl)phenyl]methyl}pyrrolidine-2-carboxamide]
		100 to 1000 nM			< 100 nM	Cn1cc2c3cc(C(=O)NCCOCCOCCOCCOCCNc4cccc5c4C(=O)N(C4CCC(=O)NC4=O)C5=O)ccc3n(CC3CCC(C(F)(F)F)CC3)c2n1 (centres unmarked) [Compound 99, N-(14-{[2-(2,6-dioxopiperidin-3-yl)-1,3-dioxo-2,3-dihydro-1H-isoindol-4-yl]amino}-3,6,9,12-tetraoxatetradecan-1-yl)-2-methyl-8-{[4-(trifluoromethyl)cyclohexyl]methyl}-2H,8H-pyrazolo[3,4-b]indole-5-carboxamide]
		100 to 1000 nM			< 100 nM	Cn1cc2c3cc(C(=O)NCCOCCOCCOCCOCCNc4ccc5c(c4)C(=O)N(C4CCC(=O)NC4=O)C5=O)ccc3n(-c3ccc(C(F)(F)F)cc3)c2n1 (centres unmarked) [Compound 42, N-(14-{[2-(2,6-dioxopiperidin-3-yl)-1,3-dioxo-2,3-dihydro-1H-isoindol-5-yl]amino}-3,6,9,12-tetraoxatetradecan-1-yl)-2-methyl-8-[4-(trifluoro-methyl)phenyl]-2H,8H-pyrazolo[3,4-b]indole-5-carboxamide]
		100 to 1000 nM			100 to 1000 nM	Cn1cc2c3cc(C(=O)NCCOCCOCCOCCOCCOc4ccc5c(c4)C(=O)N(C4CCC(=O)NC4=O)C5=O)ccc3n(-c3ccc(C(F)(F)F)cc3)c2n1 (centres unmarked) [Compound 88, N-(14-{[2-(2,6-dioxopiperidin-3-yl)-1,3-dioxo-2,3-dihydro-1H-isoindol-5-yl]oxy}-3,6,9,12-tetraoxatetradecan-1-yl)-2-methyl-8-[4-(trifluoromethyl)phenyl]-2H,8H-pyrazolo[3,4-b]indole-5-carboxamide]
					100 to 1000 nM	Cc1ncsc1-c1ccc(CNC(=O)[C@@H]2C[C@@H](O)CN2C(=O)[C@@H](NC(=O)CCCCCCOCCNC(=O)c2ccc3c(c2)c2cn(C)nc2n3-c2ccc(C(F)(F)F)cc2)C(C)(C)C)cc1 [Compound 77, (2S,4R)-1-[(2S)-3,3-dimethyl-2-{7-[2-({2-methyl-8-[4-(trifluoromethyl)-phenyl]-2H,8H-pyrazolo[3,4-b]indol-5-yl}formamido)ethoxy]heptanamido}-butanoyl]-4-hydroxy-N-{[4-(4-methyl-1,3-thiazol-5-yl)phenyl]methyl}-pyrrolidine-2-carboxamide]

More lines, now with the values behind:

SMILES	DC50 (TEAD1 in NCI-H226 cells; [1])	DC50 (TEAD1 in NCI-H226 cells; [2])	DC50 (TEAD1 in NCI-H226 cells; [3])	DC50 (TEAD1 in SK-HEP1 cells; [4])	DC50 (TEAD1 in SK-HEP1 cells; [5])	DC50 (TEAD1 in SK-HEP1 cells; [6])
CC(=O)O[C@@H]1C[C@@H](C(=O)N[C@@H](C)c2ccc(-c3scnc3C)cc2)N(C(=O)[C@@H](NC(=O)CCCCCC(=O)NCCOCCOCCNC(=O)c2ccc3c(c2)c2cn(C)nc2n3-c2ccc(C(F)(F)F)cc2)C(C)(C)C)C1 [Compound 25, (3R,5S)-1-[(2S)-3,3-dimethyl-2-{6-[(2-{2-[2-({2-methyl-8-[4-(trifluoromethyl)phenyl]-2H,8H-pyrazolo[3,4-b]indol-5-yl}formamido)ethoxy]ethoxy}ethyl)carbamoyl]hexanamido}butanoyl]-5-{[(1S)-1-[4-(4-methyl-1,3-thiazol-5-yl)phenyl]ethyl]carbamoyl}pyrrolidin-3-yl acetate]	1000 nM	1000 nM	1000 to 3000 nM	1000 nM	1000 nM	100 to 1000 nM
Cc1ncsc1-c1ccc(CNC(=O)C2CC(O)CN2C(=O)C(NC(=O)COCCOCCOCCOCCNC(=O)c2ccc3c(c2)c2cn(C)nc2n3-c2ccc(C(F)(F)F)cc2)C(C)(C)C)cc1 (stereo in doubt) [Compound 12, (2S,4R)-1-{(2S)-3,3-dimethyl-2-[14-({2-methyl-8-[4-(trifluoromethyl)phenyl]-2H,8H-pyrazolo[3,4-b]indol-5-yl}formamido)-3,6,9,12-tetraoxatetradecanamido]butanoyl}-4-hydroxy-N-{[4-(4-methyl-1,3-thiazol-5-yl)phenyl]methyl}pyrrolidine-2-carboxamide]			3000 to 9000 nM			100 to 1000 nM
CCNC(=O)[C@H](Cc1ccc(F)cc1)NC(=O)[C@@H]1CCCN1C(=O)[C@@H](NC(=O)[C@H](C)NCCOCCOCCOCCNC(=O)c1ccc2c(c1)c1cn(C)nc1n2-c1ccc(C(F)(F)F)cc1)C1CCCCC1 (stereo in doubt) [Compound 69, (13S)—N-[(1S)-1-cyclohexyl-2-[(2S)-2-{[(1S)-1-(ethylcarbamoyl)-2-(4-fluorophenyl)ethyl]carbamoyl}pyrrolidin-1-yl]-2-oxoethyl]-13-methyl-1-({2-methyl-8-[4-(trifluoromethyl)phenyl]-2H,8H-pyrazolo[3,4-b]indol-5-yl}form-amido)-3,6,9-trioxa-12-azatetradecan-14-amide]			9000 to 30000 nM			3000 to 9000 nM
Cc1ncsc1-c1ccc([C@H](C)NC(=O)[C@@H]2C[C@@H](O)CN2C(=O)[C@@H](NC(=O)CCCCCC(=O)NCCOCCOCCNC(=O)c2ccc3c(c2)c2cn(C)nc2n3-c2ccc(C(F)(F)F)cc2)C(C)(C)C)cc1 [Compound 24, N′-[(2S)-1-[(2S,4R)-4-hydroxy-2-{[(1S)-1-[4-(4-methyl-1,3-thiazol-5-yl)phenyl]ethyl]carbamoyl}pyrrolidin-1-yl]-3,3-dimethyl-1-oxobutan-2-yl]-N-(2-{2-[2-({2-methyl-8-[4-(trifluoromethyl)phenyl]-2H,8H-pyrazolo[3,4-b]indol-5-yl}formamido)ethoxy]ethoxy}ethyl) heptanediamide]	1000 nM	1000 nM	100 to 1000 nM	700 nM	700 nM	100 to 1000 nM
CCNC(=O)[C@H](Cc1ccccc1)NC(=O)[C@@H]1CCCN1C(=O)[C@@H](NC(=O)[C@H](C)NCCCCCCNC(=O)c1ccc2c(c1)c1cn(C)nc1n2-c1ccc(C(F)(F)F)cc1)C1CCCCC1 [Compound 73, (2S)-2-{[(2S)-1-[(2S)-2-cyclohexyl-2-[(2S)-2-{[6-({2-methyl-8-[4-(trifluoro-methyl)phenyl]-2H,8H-pyrazolo[3,4-b]indol-5-yl}formamido)hexyl]amino}-propanamido]acetyl]pyrrolidin-2-yl]formamido}-N-ethyl-3-phenylpropan-amide]			9000 to 30000 nM			3000 to 9000 nM
Cn1cc2c3cc(C(=O)NCCOCCOCCNC(=O)COc4ccc5c(c4)C(=O)N(C4CCC(=O)NC4=O)C5=O)ccc3n(-c3ccc(C(F)(F)F)cc3)c2n1 (centres unmarked) [Compound 7, 2-{[2-(2,6-dioxopiperidin-3-yl)-1,3-dioxo-2,3-dihydro-1H-isoindol-5-yl]oxy}-N-(2-{2-[2-({2-methyl-8-[4-(trifluoromethyl)phenyl]-2H,8H-pyrazolo[3,4-b]indol-5-yl}formamido)ethoxy]ethoxy}ethyl)acetamide]		20000 nM	9000 to 30000 nM		2400 nM	1000 to 3000 nM
Cn1cc2c3cc(C(=O)NCCOCCOCCOCCOCCOCC(=O)Nc4cccc5c4C(=O)N(C4CCC(=O)NC4=O)C5=O)ccc3n(-c3ccc(C(F)(F)F)cc3)c2n1 (centres unmarked) [Compound 10, N-[2-(2,6-dioxopiperidin-3-yl)-1,3-dioxo-2,3-dihydro-1H-isoindol-4-yl]-17-({2-methyl-8-[4-(trifluoromethyl)phenyl]-2H,8H-pyrazolo[3,4-b]indol-5-yl}formamido)-3,6,9,12,15-pentaoxaheptadecanamide]		20000 nM	1000 to 3000 nM			
Cn1cc2c3cc(C(=O)NCCOCCOCCNC(=O)CCCCCCNc4cccc5c4CN(C4CCC(=O)NC4=O)C5=O)ccc3n(-c3ccc(C(F)(F)F)cc3)c2n1 (centres unmarked) [Compound 15, 7-{[2-(2,6-dioxopiperidin-3-yl)-1-oxo-2,3-dihydro-1H-isoindol-4-yl]amino}-N-(2-{2-[2-({2-methyl-8-[4-(trifluoromethyl)phenyl]-2H,8H-pyrazolo[3,4-b]indol-5-yl}formamido)ethoxy]ethoxy}ethyl) heptanamide]			1000 to 3000 nM			
